Assay results from BindingDB's records for doi:10.1046/j.1471-4159.1997.69051810.x (Janssen Research Foundation, 1997).
pKi: −log10 of the molar value.

Assays:
[1] = biological target: 5-hydroxytryptamine receptor 4 (Homo sapiens, UniProt Q13639)
[2] = biological target: 5-hydroxytryptamine receptor 4 (Cavia porcellus, UniProt O70528)
Sequence of 5-hydroxytryptamine receptor 4 (Cavia porcellus, UniProt O70528) (O70528 whole entry): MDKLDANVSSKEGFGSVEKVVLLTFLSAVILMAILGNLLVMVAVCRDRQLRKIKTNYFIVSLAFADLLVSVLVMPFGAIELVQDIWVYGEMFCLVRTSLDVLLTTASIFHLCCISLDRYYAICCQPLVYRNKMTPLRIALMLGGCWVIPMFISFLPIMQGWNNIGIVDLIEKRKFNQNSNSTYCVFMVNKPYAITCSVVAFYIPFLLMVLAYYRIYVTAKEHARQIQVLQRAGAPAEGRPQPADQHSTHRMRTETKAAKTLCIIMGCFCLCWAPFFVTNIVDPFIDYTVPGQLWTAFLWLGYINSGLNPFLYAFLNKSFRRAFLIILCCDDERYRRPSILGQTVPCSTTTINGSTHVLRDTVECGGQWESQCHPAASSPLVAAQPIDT

Sequence of 5-hydroxytryptamine receptor 4 (Homo sapiens, UniProt Q13639) (Q13639 whole entry): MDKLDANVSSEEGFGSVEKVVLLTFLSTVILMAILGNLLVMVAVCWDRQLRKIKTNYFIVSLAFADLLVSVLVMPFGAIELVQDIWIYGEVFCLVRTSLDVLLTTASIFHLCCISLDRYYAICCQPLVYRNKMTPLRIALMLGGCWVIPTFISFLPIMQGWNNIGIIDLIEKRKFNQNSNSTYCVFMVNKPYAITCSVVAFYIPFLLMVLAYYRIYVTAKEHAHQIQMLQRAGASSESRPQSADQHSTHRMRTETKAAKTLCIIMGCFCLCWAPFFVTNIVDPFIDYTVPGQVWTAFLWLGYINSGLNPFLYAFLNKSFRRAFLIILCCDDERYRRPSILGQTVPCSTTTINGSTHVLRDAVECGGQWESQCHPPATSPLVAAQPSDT

| SMILES | pKi [1] | pKi [2] |
| --- | --- | --- |
| CCCCN1CCC(COC(=O)c2cc(Cl)c(N)c3c2OCCO3)CC1 [CAS_121881] | 10.00 | 10.15 |
| COc1ccc2[nH]cc(CCN)c2c1 [tryptamine, 5-Methoxy] | 6.00 | 6.60 |
| Cn1cc(C(=O)OCC2CCN(CCNS(C)(=O)=O)CC2)c2ccccc21 [GR 113808] | 9.60 | 9.41 |
| COc1[nH]c2ccc(F)cc2c1C(=O)OCC1CCN(CCNS(C)(=O)=O)CC1 [GR-125487] | 9.82 | 9.72 |
| CN1C2CCC1CC(OC(=O)c1c[nH]c3ccccc13)C2 (centres undefined) | – | 6.70 |
